# Laboratory results taken from patent publication US20240327411A1, “SIRT6 ACTIVATORS” (The Board of Regents of The University of Texas System, priority 2022, published 2024).
# What was measured:
# [1] = biological target: T1, Sirt6 (Homo sapiens, UniProt Q8N6T7); assay: Sirt6-dependent peptide deacetylation, FLUOR DE LYS / Sirt6 fluorometric activity kit; type: biochemical; conditions: mean ± SD, at least two independent experiments
# Procedure: (§2) Sirt6/Sirt1/Sirt2/Sirt3 activity was tested by Activity Assay Kits (Abcam) according to the manufacturer's instruction with minor modification. […] All experiments were conducted at room temperature.
# [2] = tested on: SARS-CoV-2; assay: microbe, parasite or virus in culture; type: cell-based
# [3] = biological target: T2, Sirt3 (Homo sapiens, UniProt Q9NTG7); assay: Sirt3 deacetylation activity assay kit; conditions: time course, FIG. 3
# T2 sequence (Q9NTG7 1-399): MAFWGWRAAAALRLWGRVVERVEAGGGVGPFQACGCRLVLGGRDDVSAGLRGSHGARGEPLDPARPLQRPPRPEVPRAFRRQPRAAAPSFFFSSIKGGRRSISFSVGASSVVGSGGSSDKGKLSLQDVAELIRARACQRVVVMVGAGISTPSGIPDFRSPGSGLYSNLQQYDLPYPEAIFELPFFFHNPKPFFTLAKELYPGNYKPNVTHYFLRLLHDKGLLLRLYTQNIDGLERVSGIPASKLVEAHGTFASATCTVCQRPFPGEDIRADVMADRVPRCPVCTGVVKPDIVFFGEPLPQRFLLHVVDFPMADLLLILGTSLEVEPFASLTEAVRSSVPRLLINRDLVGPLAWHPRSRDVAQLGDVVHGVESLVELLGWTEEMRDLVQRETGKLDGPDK
# Procedure: as §2
# [4] = tested on: A549-hACE2 cells; assay: Cell viability assay in A549-hACE2 cells; conditions: 50 μM, 48 h
# [5] = biological target: T1, Sirt6; assay: Nucleosome test: Sirt6-dependent H3K9 deacetylation of nucleosomes from HEK293T cells, Western blot; type: biochemical; conditions: 100 μM, 30° C., 60 minutes
# Procedure: (§1) . Nucleosomes extracted from HEK293T cells were incubated with 100 μM of selected compounds or Vehicle at 30° C. for 60 minutes. Acetylated H3K9 and total H3 were detected by Western blot. The level of acetylated H3K9 was quantified by Image Lab software. FIGS. 5B and 5C show the cell viability which was assessed by MTT assay. R28 cells were treated with 30 μM or 100 μM compounds for 24 hours. Data were presented as mean±SEM. The experiment was repeated at least three times. ***p<0.001; ****p<0.0001.
# Next, effects of selected compounds were explored for Sirt6-dependent deacetylation of complete nucleosomes extracted from human embryonic kidney (HEK) 293T cells, as nucleosomes represent more physiologically relevant substrates. […]. Briefly, HEK 293T cells in 100 mm dish were lysed with lysis buffer supplemented with PIC and PMSF for 30 min. After centrifugation for 10 min at 5000 rpm at 4° C., supernatant was removed and nuclei pellet was resuspended with digestion buffer supplemented with PIC and PMSF for 5 min at 37° C. Working enzymatic sharing cocktail was added to digest the chromatin, and EDTA was added after incubation to stop the digestion. Digested nucleosome was obtained in the supernatant after centrifugation for 10 min at 15000 rpm at 4° C. and the concentration was quantified by measuring the absorbance at […]. 20 μg nucleosome was incubated in solution (1× buffer, 0.5 μL recombinant Sirt6 and […] NAD, from SIRT6 ACTIVITY ASSAY KIT) for 60 min. To test the effects of the compounds on Sirt6 activity, corresponding compound or DMSO control was added before incubation. The reaction mixture was analyzed by Western blot.
# Proteins were extracted from cells with PIERCE RIPA BUFFER (89901, ThermoFisher Scientific), and protein concentration was determined using PIERCE BCA PROTEIN ASSAY KIT (23225, ThermoFisher Scientific). Equal amounts of protein were loaded and separated by SDS-PAGE gel. Next, separated proteins were transferred onto Nitrocellulose Blotting Membranes (A29457237, GE Healthcare Life science), and then the membranes were blocked by 5% non-fat dry milk. After incubation with corresponding primary antibodies against H3K9ac, H3 and Sirt6 at a 1:1000 dilution, or α-tubulin at a 1:5000 dilution, goat anti-mouse or goat anti-rabbit secondary antibodies at a 1:5000 dilution were applied. Finally, membranes were incubated with enhanced chemiluminescent and protein bands were detected by CHEMIDOC imaging system (Bio-Rad). Image-Lab software was used to analyze the intensities of the protein bands.
# [6] = tested on: BV2 cells; assay: LPS-induced inflammatory gene mRNA expression in BV2 cells, q-PCR; type: cell-based, murine
# [7] = tested on: retinal precursor cells (R28); assay: MTT cell viability assay in R28 cells; type: cell-based; conditions: 30 μM, 24 hours
# Procedure: as §1, with “FIGS. 5A-5C: FIGS. 5A-5C display the deacetylation effect and cytotoxicity of selected compounds. […] Nucleosomes” for “. Nucleosomes”
# R28 cells were seeded in 96 well plates at a density of 1×10^4/well overnight, then treated with compounds for 24 h. MTT (MilliporeSigma) was added to cells (20 μL/well) and incubated for 3.5 h. After medium was removed, 100 μL dimethyl sulfoxide (DMSO) was added into each well. Absorbance was measured at 540 nm using a microplate reader.
# [8] = biological target: T3, Sirt1 (Homo sapiens, UniProt Q96EB6); assay: Sirt1 deacetylation activity assay kit; conditions: time course, FIG. 3
# T3 sequence (Q96EB6 1-747): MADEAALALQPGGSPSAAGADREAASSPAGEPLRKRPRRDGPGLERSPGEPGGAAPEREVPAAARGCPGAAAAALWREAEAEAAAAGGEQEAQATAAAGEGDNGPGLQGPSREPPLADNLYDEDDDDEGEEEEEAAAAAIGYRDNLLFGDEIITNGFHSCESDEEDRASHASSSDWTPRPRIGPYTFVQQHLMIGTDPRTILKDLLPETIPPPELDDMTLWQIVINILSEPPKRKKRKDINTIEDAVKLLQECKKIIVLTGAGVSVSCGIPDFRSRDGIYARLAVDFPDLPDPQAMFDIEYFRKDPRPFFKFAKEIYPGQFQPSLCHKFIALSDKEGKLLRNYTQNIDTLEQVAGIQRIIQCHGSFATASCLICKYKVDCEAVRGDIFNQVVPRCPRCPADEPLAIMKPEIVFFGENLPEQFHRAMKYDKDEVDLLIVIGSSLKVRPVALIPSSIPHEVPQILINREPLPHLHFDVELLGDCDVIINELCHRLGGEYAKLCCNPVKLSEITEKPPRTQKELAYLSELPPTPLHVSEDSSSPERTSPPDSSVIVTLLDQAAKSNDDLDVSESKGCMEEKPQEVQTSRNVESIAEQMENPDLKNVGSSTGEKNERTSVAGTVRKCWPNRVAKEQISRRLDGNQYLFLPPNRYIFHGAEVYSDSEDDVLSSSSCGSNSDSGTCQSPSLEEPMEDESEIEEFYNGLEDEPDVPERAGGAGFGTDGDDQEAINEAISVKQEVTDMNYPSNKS
# Procedure: as §2
# T1 sequence (Q8N6T7 whole entry): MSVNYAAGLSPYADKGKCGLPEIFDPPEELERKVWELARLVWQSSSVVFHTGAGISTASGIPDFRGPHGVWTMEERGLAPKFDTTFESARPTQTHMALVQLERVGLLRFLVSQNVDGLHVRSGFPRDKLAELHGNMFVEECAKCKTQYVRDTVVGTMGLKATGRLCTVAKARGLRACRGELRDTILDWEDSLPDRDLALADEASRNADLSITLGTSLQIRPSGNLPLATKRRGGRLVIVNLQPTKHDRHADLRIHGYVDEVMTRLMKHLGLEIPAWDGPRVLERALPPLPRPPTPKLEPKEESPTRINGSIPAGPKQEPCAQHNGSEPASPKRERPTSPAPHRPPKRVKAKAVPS
compound,measurement,setting,value
"CN(C)CCN1CCN(c2ncccc2C2Nc3ccccc3-n3cccc32)CC1 (stereo not drawn) [Compound 38, 2-(4-(3-(4,5-Dihydropyrrolo[1,2-a]quinoxalin-4-yl)pyridin-2-yl)piperazin-1-yl)-N,N-dimethylethan-1-amine]",Activation Fold 30 μM,[1]; compound at 30 μM,3.83 ± 0.46 fold
same,Activation Fold 100 μM,[1]; compound at 100 μM,7.38 ± 0.6 fold
same,potency in inhibiting SARS-CoV-2 infection (in words),[2],micromolar potency
same,EC50,"[2]; Severe acute respiratory syndrome coronavirus 2, 48 h, read-out: EC50, SARS-CoV-2 infection",9.3 µM
same,effect on Sirt3 deacetylation,[3],no significant effects
same,cytotoxicity at the highest tested concentration,[4],none of these compounds exhibited significant cytotoxicity
same,acetylation of H3K9 in the nucleosome test,[5],significantly decreased the acetylation of H3K9
same,"LPS-induced expression of IL-1β, IL-6, MCP-1, and TNFα","[6]; BV2 cells, 30 μM pretreatment 30 minutes, 100 ng/mL LPS 6 hours, mRNA",strongly inhibited
same,ICAM-1 induction,"[6]; BV2 cells, 30 μM, 100 ng/mL LPS 6 hours, mRNA",slight inhibition
same,LPS-induced proinflammatory cytokine/chemokine production,[6]; summary statement,strongly repressed
same,toxicity on retinal precursor cells (R28),[7],no obvious toxicity
same,effect on Sirt1 deacetylation,[8],no significant effects
